According to US20220167618A1, “PESTICIDALLY ACTIVE AZOLE-AMIDE COMPOUNDS” (SYNGENTA CROP PROTECTION AG, priority 2019, published 2022):

Key:
Format in all cases: in vivo
[1] = system: Chilo suppressalis (Striped Rice Stemborer); assay: Example B4: Chilo suppressalis (striped rice stemborer), artificial diet; conditions: 144 h, application rate 200 ppm, L2 larvae, 6 days after infestation, read-out: control in at least one of the three categories (mortality, anti-feedant or growth inhibition)
Summary of the method: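 Artificial diet was treated with aqueous dilutions made from 10'000 ppm DMSO stocks, dried, then infested with L2 larvae at 6–8 per well. Mortality, antifeedant effect and growth inhibition were assessed against untreated samples 6 days after infestation.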

[2] = system: Spodoptera littoralis (Egyptian Cotton Leaf Worm); assay: Example B9: Spodoptera littoralis (Egyptian cotton leaf worm), sprayed cotton leaf discs; conditions: foliar, 72 h, application rate 200 ppm, L1 larvae, 3 days after infestation, read-out: control in at least one of the three categories (mortality, anto-feedant or growth inhibition)
[3] = system: Spodoptera littoralis (Egyptian Cotton Leaf Worm); assay: Example B10: Spodoptera littoralis (Egyptian cotton leaf worm), uptake via lettuce roots from agar; conditions: 144 h, test rate 12.5 ppm, eggs, 6 days after infestation, read-out: control in at least one of the three categories (mortality, anti-feedant, or growth inhibition)
Source text: Example B10: Spodoptera Littoralis (Egyptian Cotton Leaf Worm)
Test compounds were applied by pipette from 10′000 ppm DMSO stock solutions into 24-well plates and mixed with agar. Lettuce seeds were placed onto the agar and the multi well plate was closed by another plate which contained also agar. After 7 days the compound was absorbed by the roots and the lettuce grew into the lid plate. The lettuce leaves were then cut off into the lid plate. Spodoptera eggs were pipetted through a plastic stencil onto a humid gel blotting paper and the lid plate was closed with it. The samples were assessed for mortality, anti-feedant effect and growth inhibition in comparison to untreated samples 6 days after infestation.

[4] = system: Plutella xylostella (Diamond Back Moth); assay: Example B5: Plutella xylostella (diamond back moth), artificial diet, 24-well; conditions: 192 h, application rate 200 ppm, eggs, 8 days after infestation, read-out: control in at least one of the two categories (mortality or growth inhibition)
Experimental: Example B5: Plutella xylostella (Diamond Back Moth)
24-well microtiter plates with artificial diet were treated with aqueous test solutions prepared from 10′000 ppm DMSO stock solutions by pipetting. After drying, Plutella eggs were pipetted through a plastic stencil onto a gel blotting paper and the plate was closed with it. The samples were assessed for mortality and growth inhibition in comparison to untreated samples 8 days after infestation.

[5] = system: Diabrotica balteata (Corn Root Worm); assay: Example B1: Diabrotica balteata (corn root worm), sprayed maize sprouts; conditions: 96 h, application rate 200 ppm, L2 larvae, 4 days after infestation, read-out: control in at least one of the two categories (mortality or growth inhibition)
Experimental: Example B1: Diabrotica balteata (Corn Root Worm)
Maize sprouts placed onto an agar layer in 24-well microtiter plates were treated with aqueous test solutions prepared from 10′000 ppm DMSO stock solutions by spraying. After drying, the plates were infested with L2 larvae (6 to 10 per well). The samples were assessed for mortality and growth inhibition in comparison to untreated samples 4 days after infestation.

[6] = system: Plutella xylostella (Diamondback Moth); assay: Example B13: Plutella xylostella (diamondback moth), artificial diet, 96-well; conditions: 216 h, application rate 500 ppm, eggs/L1 larvae, 9 days after infestation
Experimental: Example B13: Plutella xylostella (Diamondback Moth)
96-well microtiter plates containing artificial diet were treated with aqueous test solutions, prepared from 10′000 ppm DMSO stock solutions, by a liquid handling robot. After drying, eggs (˜30 per well) were infested onto a netted lid which was suspended above the diet. The eggs hatch and L1 larvae move down to the diet. The samples were assessed for mortality 9 days after infestation.

[7] = system: Myzus persicae (Green Peach Aphid); assay: Example B8: Myzus persicae (green peach aphid), intrinsic activity; conditions: 120 h, test rate 12 ppm, 5 days after infestation
Source text: Example B8: Myzus persicae (Green Peach Aphid): Intrinsic Activity
Test compounds prepared from 10′000 ppm DMSO stock solutions were applied by pipette into 24-well microtiter plates and mixed with sucrose solution. The plates were closed with a stretched Parafilm. A plastic stencil with 24 holes was placed onto the plate and infested pea seedlings were placed directly on the Parafilm. The infested plate was closed with a gel blotting paper and another plastic stencil and then turned upside down. The samples were assessed for mortality 5 days after infestation.

CC(NC(=O)c1cc(C(F)(F)F)cc(C2(C#N)CC2)c1)c1nc(Br)nn1-c1ccc(C#N)cn1 (centres unmarked) [Compound P1, N-[1-[5-bromo-2-(5-cyano-2-pyridyl)-1,2,4-triazol-3-yl]ethyl]-3-(1-cyanocyclopropyl)-5-(trifluoromethyl)benzamide]
≥ 80%: percent control (mortality, anti-feedant or growth inhibition) at 200 ppm [1] | percent control (mortality, anti-feedant or growth inhibition) at 200 ppm [2] | percent control (mortality, anti-feedant or growth inhibition) at 12.5 ppm [3] | percent control (mortality or growth inhibition) at 200 ppm [4] | percent control (mortality or growth inhibition) at 200 ppm [5]

CC(NC(=O)c1cc(C(F)(F)F)cc(C(C)(C)C#N)c1)c1nc(Br)nn1-c1ncc(OC(F)F)cn1 (centres unmarked) [Compound P35, N-[1-[5-bromo-2-[5-(difluoromethoxy)pyrimidin-2-yl]-1,2,4-triazol-3-yl]ethyl]-3-(1-cyano-1-methyl-ethyl)-5-(trifluoromethyl)benzamide]
≥ 80%: mortality at 500 ppm [6] | percent control (mortality, anti-feedant or growth inhibition) at 200 ppm [1] | percent control (mortality, anti-feedant or growth inhibition) at 200 ppm [2] | percent control (mortality, anti-feedant or growth inhibition) at 12.5 ppm [3] | mortality at 12 ppm [7] | percent control (mortality or growth inhibition) at 200 ppm [4] | percent control (mortality or growth inhibition) at 200 ppm [5]

CC(NC(=O)c1cc(C(F)(F)F)nc(C2(C#N)CC2)c1)c1nc(Br)nn1-c1ncc(OCC(F)F)cn1 (centres unmarked) [Compound P4, N-[1-[5-bromo-2-[5-(2,2-difluoroethoxy)pyrimidin-2-yl]-1,2,4-triazol-3-yl]ethyl]-2-(1-cyanocyclopropyl)-6-(trifluoromethyl)pyridine-4-carboxamide]
≥ 80%: percent control (mortality, anti-feedant or growth inhibition) at 200 ppm [1] | percent control (mortality, anti-feedant or growth inhibition) at 200 ppm [2] | mortality at 12 ppm [7] | percent control (mortality or growth inhibition) at 200 ppm [4] | percent control (mortality or growth inhibition) at 200 ppm [5]
